Measurements reported in US4758557A, “Cephalosporin derivatives and bactericides containing the same” (Meiji Seika Kaisha, Ltd., priority 1985, dated 1988).
Values after ≈ are worked out from the molar mass of the structure shown.

Key:
Assay in all cases: MIC in agar plate culture-dilution assay
Format in all cases: cell-based
[1] = tested on: Staphylococcus aureus Smith (1); conditions: Staphylococcus aureus Smith (1); agar plate culture-dilution; read-out: MIC
Excerpt: (§1) The compounds of the formula (I) and salts thereof of the present invention are new, and have high and broad antibacterial activity capable of inhibiting the growth of pathogenic microorganisms of a broad range including gram-positive and gram-negative bacteria. In order to show the usability of the compounds of the formula (I), the antibacterial activity of some typical compounds of the formula (I) was actually measured, and the results are given in the following Table-1.
(§2) MIC in agar plate culture-dilution assay (Y/ml)

[2] = tested on: Escherichia coli NIHJ JC-2; conditions: NIHJJC2
Excerpt: as §1, §2

[3] = tested on: Pseudomonas aeruginosa IAM-1007; conditions: IAM1007; Pseudomonas aeruginosa IAM-1007; agar plate culture-dilution; read-out: MIC
Excerpt: as §1, §2

[4] = tested on: Staphylococcus aureus 209P JC-1; conditions: Staphylococcus aureus 209P JC-1; agar plate culture-dilution; read-out: MIC
Excerpt: as §1, §2

Proteus vulgaris GN-76 = conditions: GN76; Proteus vulgaris GN-76; agar plate culture-dilution; read-out: MIC
Excerpt: as §1, §2

[5] = tested on: Citrobacter freundii GN-346; conditions: GN346; Citrobacter freundii GN-346; agar plate culture-dilution; read-out: MIC
Excerpt: as §1, §2

[6] = tested on: Serratia marcescens No. 1; conditions: Serratia marcescens No. 1; agar plate culture-dilution; read-out: MIC
Excerpt: as §1, §2

[7] = tested on: Bacillus subtilis ATCC 6633; conditions: ATCC6633; Bacillus subtilis ATCC 6633; agar plate culture-dilution; read-out: MIC
Excerpt: as §1, §2

[8] = tested on: Enterobacter cloacae GN-7471; conditions: GN7471; Enterobacter cloacae GN-7471; agar plate culture-dilution; read-out: MIC
Excerpt: as §1, §2

[9] = tested on: Pseudomonas aeruginosa M-0148; conditions: M0148; Pseudomonas aeruginosa M-0148; agar plate culture-dilution; read-out: MIC
Excerpt: as §1, §2

Proteus rettgeri GN-624 = conditions: Providencia rettgeri, GN624; Proteus rettgeri GN-624; agar plate culture-dilution; read-out: MIC
Excerpt: as §1, §2

[10] = tested on: Pseudomonas aeruginosa E-2; conditions: E2; Pseudomonas aeruginosa E-2; agar plate culture-dilution; read-out: MIC
Excerpt: as §1, §2

[11] = tested on: Klebsiella pneumoniae GN-69; conditions: GN69; Klebsiella pneumoniae GN-69; agar plate culture-dilution; read-out: MIC
Excerpt: as §1, §2

[12] = tested on: Pseudomonas maltophilia M-0627; conditions: Stenotrophomonas maltophilia, M0627; Pseudomonas maltophilia M-0627; agar plate culture-dilution; read-out: MIC
Excerpt: as §1, §2

Compound | MIC [1] [µg/mL] | MIC [2] [µg/mL] | MIC [3] [µg/mL] | MIC [4] [µg/mL] | MIC (Proteus vulgaris GN-76) [µg/mL] | MIC [5] [µg/mL] | MIC [6] [µg/mL] | MIC [7] [µg/mL] | MIC [8] [µg/mL] | MIC [9] [µg/mL] | MIC (Proteus rettgeri GN-624) [µg/mL] | MIC [10] [µg/mL] | MIC [11] [µg/mL] | MIC [12] [µg/mL]
C[n+]1ccc(SCC2=C(C(=O)[O-])N3C(=O)[C@@H](NC(=O)C(NC(=O)c4cc(=O)c(O)c[nH]4)c4csc(N)n4)[C@H]3SC2)cc1 (some centres unmarked) [A, reference compound] | 0.78 (≈ 1.24 µM) | 0.1 (≈ 0.159 µM) | 6.25 (≈ 9.93 µM) | 0.78 (≈ 1.24 µM) | 0.78 (≈ 1.24 µM) | 0.39 (≈ 0.619 µM) | 0.2 (≈ 0.318 µM) | 1.56 (≈ 2.48 µM) | 3.13 (≈ 4.97 µM) | 50 (≈ 79.4 µM) | 1.56 (≈ 2.48 µM) | 0.2 (≈ 0.318 µM) | 0.2 (≈ 0.318 µM) | 50 (≈ 79.4 µM)
Nc1nc(C(NC(=O)c2cc(=O)c(O)cn2O)C(=O)N[C@@H]2C(=O)N3C(C(=O)[O-])=C(CSc4cc[n+](CCO)cc4)CS[C@H]23)cs1 (stereo partly drawn) [Example 5, (6R,7R)7-[(RS)2-(2-Aminothiazol-4-yl)-2-(1,5-dihydroxy-4-pyridone-2-carboxamido)acetamido]-3-[1-(2-hydoroxyethyl)pyridinium-4-yl]thiomethyl-ceph-3-em-4-carboxylate] | 3.13 (≈ 4.63 µM) | 0.05 (≈ 0.074 µM) | 0.1 (≈ 0.148 µM) | 1.56 (≈ 2.31 µM) | 0.39 (≈ 0.577 µM) | 0.78 (≈ 1.15 µM) | 0.2 (≈ 0.296 µM) | 3.13 (≈ 4.63 µM) | 1.56 (≈ 2.31 µM) | 0.78 (≈ 1.15 µM) | 0.1 (≈ 0.148 µM) | 0.05 (≈ 0.074 µM) | 0.05 (≈ 0.074 µM) | –
NC(=O)C[n+]1ccc(SCC2=C(C(=O)[O-])N3C(=O)[C@@H](NC(=O)C(NC(=O)c4cc(=O)c(O)cn4O)c4csc(N)n4)[C@H]3SC2)cc1 (stereo partly drawn) [Example 6, (6R,7R)7-[(RS)2-(2-Aminothiazol-4-yl)-2-(1,5-dihydroxy-4-pyridone-2-carboxamido)acetamido]-3-(1-carbamoylmethylpyridinium-4-yl)thiomethyl-ceph-3-em-4-carboxylate] | 3.13 (≈ 4.54 µM) | 0.05 (≈ 0.0726 µM) | 0.1 (≈ 0.145 µM) | 1.56 (≈ 2.27 µM) | 0.2 (≈ 0.29 µM) | 1.56 (≈ 2.27 µM) | 0.2 (≈ 0.29 µM) | 3.13 (≈ 4.54 µM) | 1.56 (≈ 2.27 µM) | 0.78 (≈ 1.13 µM) | 0.2 (≈ 0.29 µM) | 0.05 (≈ 0.0726 µM) | 0.1 (≈ 0.145 µM) | –
C[n+]1cccc(SCC2=C(C(=O)[O-])N3C(=O)[C@@H](NC(=O)C(NC(=O)c4cc(=O)c(O)cn4O)c4csc(N)n4)[C@H]3SC2)c1 (stereo partly drawn) [Example 4, (6R,7R)7-[(RS)2-(2-Aminothiazol-4-yl)-2-(1,5-dihydroxy-4-pyridone-2-carboxamido)acetamido]-3-(1-methylpyridinium-3-yl)thiomethyl-ceph-3-em-4-carboxylate] | 3.13 (≈ 4.85 µM) | 0.1 (≈ 0.155 µM) | 0.2 (≈ 0.31 µM) | 3.13 (≈ 4.85 µM) | 0.39 (≈ 0.604 µM) | 6.25 (≈ 9.68 µM) | 0.2 (≈ 0.31 µM) | 12.5 (≈ 19.4 µM) | 3.13 (≈ 4.85 µM) | 0.39 (≈ 0.604 µM) | 0.2 (≈ 0.31 µM) | 0.1 (≈ 0.155 µM) | 0.1 (≈ 0.155 µM) | –

The remaining lines, values ahead:

MIC [1] [µg/mL] | MIC [2] [µg/mL] | MIC [3] [µg/mL] | MIC [4] [µg/mL] | MIC (Proteus vulgaris GN-76) [µg/mL] | MIC [5] [µg/mL] | MIC [6] [µg/mL] | MIC [7] [µg/mL] | MIC [8] [µg/mL] | MIC [9] [µg/mL] | MIC (Proteus rettgeri GN-624) [µg/mL] | MIC [10] [µg/mL] | MIC [11] [µg/mL] | MIC [12] [µg/mL] | Compound
1.56 (≈ 2.27 µM) | 0.05 (≈ 0.0729 µM) | < 0.025 | 1.56 (≈ 2.27 µM) | 0.1 (≈ 0.146 µM) | 0.1 (≈ 0.146 µM) | 0.1 (≈ 0.146 µM) | 6.25 (≈ 9.11 µM) | 0.78 (≈ 1.14 µM) | 0.2 (≈ 0.292 µM) | 0.1 (≈ 0.146 µM) | < 0.025 | < 0.025 | 6.25 (≈ 9.11 µM) | C[n+]1ccc(SCC2=C(C(=O)[O-])N3C(=O)[C@@H](NC(=O)C(NC(=O)c4cc(=O)c(O)cn4O)c4csc(N)n4)[C@H]3SC2)c2c1CCC2 (stereo partly drawn) [Example 14, (6R,7R)7-[(RS)2-(2-Aminothiazol-4yl)-2-(1,5-dihydroxy-4-pyridone-2-carboxamido)acetamido]-3-(2,3-cyclopenteno-1-methylpyridinium-4-yl)-thiomethyl-ceph-3-em-4-carboxylate]
3.13 (≈ 4.96 µM) | 0.1 (≈ 0.158 µM) | < 0.025 | 3.13 (≈ 4.96 µM) | 0.39 (≈ 0.617 µM) | 0.78 (≈ 1.23 µM) | 0.39 (≈ 0.617 µM) | 6.25 (≈ 9.89 µM) | 1.56 (≈ 2.47 µM) | 3.13 (≈ 4.96 µM) | 1.56 (≈ 2.47 µM) | 0.1 (≈ 0.158 µM) | 0.2 (≈ 0.317 µM) | 6.25 (≈ 9.89 µM) | Nc1nc(C(NC(=O)c2cc(=O)c(O)cn2O)C(=O)N[C@@H]2C(=O)N3C(C(=O)O)=C(CSc4ccncc4)CS[C@H]23)cs1 (stereo partly drawn) [Example 16, (6R,7R)7-[(RS)2-(2-Aminothiazol-4-yl)-2-(1,5-dihydroxy-4-pyridone-2-carboxamido)acetamido]-3-(pyridine-4-yl)thiomethyl-ceph-3-em-4-carboxylic acid]
6.25 (≈ 9.79 µM) | 0.05 (≈ 0.0783 µM) | 0.1 (≈ 0.157 µM) | 3.13 (≈ 4.9 µM) | 0.1 (≈ 0.157 µM) | 0.78 (≈ 1.22 µM) | 0.2 (≈ 0.313 µM) | 3.13 (≈ 4.9 µM) | 6.25 (≈ 9.79 µM) | 0.2 (≈ 0.313 µM) | 3.13 (≈ 4.9 µM) | 0.05 (≈ 0.0783 µM) | 0.05 (≈ 0.0783 µM) | 1.56 (≈ 2.44 µM) | Nc1nc(C(NC(=O)c2cc(=O)c(O)cn2O)C(=O)N[C@@H]2C(=O)N3C(C(=O)O)=C(CSc4cnns4)CS[C@H]23)cs1 (stereo partly drawn) [Example 25, (6R,7R)7-[(RS)2-(2-Aminothiazol-4-yl)-2-(1,5-dihydroxy-4-pyridone-2-carboxamido)acetamido]-3-(1,2,3-thiadiazol-5-yl)thiomethyl-ceph-3-em-4-carboxylic acid]
1.56 (≈ 2.32 µM) | 0.05 (≈ 0.0744 µM) | 0.2 (≈ 0.298 µM) | 1.56 (≈ 2.32 µM) | 0.2 (≈ 0.298 µM) | 0.78 (≈ 1.16 µM) | 0.2 (≈ 0.298 µM) | 3.13 (≈ 4.66 µM) | 1.56 (≈ 2.32 µM) | 1.56 (≈ 2.32 µM) | 0.1 (≈ 0.149 µM) | 0.1 (≈ 0.149 µM) | 0.05 (≈ 0.0744 µM) | – | Nc1nc(C(NC(=O)c2cc(=O)c(O)cn2O)C(=O)N[C@@H]2C(=O)N3C(C(=O)[O-])=C(CSc4cc[n+](C5CC5)cc4)CS[C@H]23)cs1 (stereo partly drawn) [Example 8, (6R,7R)7-[(RS)2-(2-Aminothiazol-4-yl)-2-(1,5-dihydroxy-4-pyridone-2-carboxamido)acetamido]-3-(1-cycloproylpyridinium-4-yl)thiomethyl-ceph-3-em-4-carboxylate]
3.13 (≈ 4.61 µM) | 0.05 (≈ 0.0736 µM) | 0.39 (≈ 0.574 µM) | 3.13 (≈ 4.61 µM) | 0.1 (≈ 0.147 µM) | 0.39 (≈ 0.574 µM) | 0.2 (≈ 0.294 µM) | 3.13 (≈ 4.61 µM) | 0.78 (≈ 1.15 µM) | 0.39 (≈ 0.574 µM) | 0.2 (≈ 0.294 µM) | 0.1 (≈ 0.147 µM) | 0.05 (≈ 0.0736 µM) | 1.56 (≈ 2.3 µM) | Cn1c(SCC2=C(C(=O)O)N3C(=O)[C@@H](NC(=O)C(NC(=O)c4cc(=O)c(O)cn4O)c4csc(N)n4)[C@H]3SC2)nnc(O)c1=O (stereo partly drawn) [Example 22, (6R,7R)7-[(RS)2-(2-Aminothaizol-4-yl)-2-(1,5-dihydroxy-4-pyridone-2-carboxamido)acetamido]-3-(4,5-dihydro-4-methyl-5-oxo-6-hydroxy-1,2,4-triazin-3-yl)thiomethyl-ceph-3-em-4-carboxylic acid]
